Read-outs that look alike come from different tables or passages of the source.
Experiments:
[1] = tested on: Key Broadleaf Weed and Crop Species; test: Post-Emergent Test II: postemergent herbicidal activity, visual rating after 14 d (Table 7); type: in vivo; details: post-emergence, 336 h; for pest or weed control at 35 g/ha: 35 g ai/ha; for pest or weed control at 70 g/ha: 70 g ai/ha; for pest or weed control at 140 g/ha: 140 g ai/ha
Procedure, shortened: (§1)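 Post-emergence foliar spray, 187 L/ha, first/second true leaf stage plants in potting mix (pH 6.0-6.8). Rates: top rate and 2-fold serial dilutions to 1/16×. Solvent-blank controls. Readout: visual % kill at 14 d.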

[2] = tested on: Key Grass and Sedge Weeds as well as Grass Crops; test: Post-Emergent Test II: postemergent herbicidal activity, visual rating after 14 d (Table 8); type: in vivo; details: post-emergence, 336 h; for pest or weed control at 35 g/ha: 35 g ai/ha; for pest or weed control at 70 g/ha: 70 g ai/ha; for pest or weed control at 140 g/ha: 140 g ai/ha
Procedure, shortened: as §1

[3] = ABUTH: velvetleaf (Abutilon theophrasti), read-out: Visual Growth Reduction (%) 14 Days After Application ABUTH
[4] = AMARE: redroot pigweed (Amaranthus retroflexus), read-out: Visual Growth Reduction (%) 14 Days After Application AMARE
[5] = BRSNN: oilseed rape, canola (Brassica napus), read-out: Visual Growth Reduction (%) 14 Days After Application BRSNN
[6] = CHEAL: lambsquarters (Chenopodium album), read-out: Visual Growth Reduction (%) 14 Days After Application CHEAL
[7] = EPHHL: wild poinsettia (Euphorbia heterophylla), read-out: Visual Growth Reduction (%) 14 Days After Application EPHHL
[8] = HELAN: sunflower (Helianthus annuus), read-out: Visual Growth Reduction (%) 14 Days After Application HELAN
[9] = barnyardgrass (Echinochloa crus-galli), read-out: Visual Growth Reduction (%) 14 Days After Application, ECHCG
[10] = giant foxtail (Setaria faberi), read-out: Visual Growth Reduction (%) 14 Days After Application, SETFA
[11] = maize, corn (Zea mays), read-out: Visual Growth Reduction (%) 14 Days After Application, ZEAMX
[12] = rice (Oryza sativa), read-out: Visual Growth Reduction (%) 14 Days After Application, ORYSA
[13] = wheat, spring (Triticum aestivum), read-out: Visual Growth Reduction (%) 14 Days After Application, TRZAS
[14] = yellow nutsedge (Cyperus esculentus), read-out: Visual Growth Reduction (%) 14 Days After Application, CYPES

Compound	pest or weed control at 35 g/ha [1, 3] [%]	pest or weed control at 70 g/ha [1, 3] [%]	pest or weed control at 140 g/ha [1, 3] [%]	pest or weed control at 35 g/ha [1, 4] [%]	pest or weed control at 70 g/ha [1, 4] [%]	pest or weed control at 140 g/ha [1, 4] [%]	pest or weed control at 35 g/ha [1, 5] [%]	pest or weed control at 70 g/ha [1, 5] [%]	pest or weed control at 140 g/ha [1, 5] [%]	pest or weed control at 35 g/ha [1, 6] [%]	pest or weed control at 70 g/ha [1, 6] [%]	pest or weed control at 140 g/ha [1, 6] [%]	pest or weed control at 35 g/ha [1, 7] [%]	pest or weed control at 70 g/ha [1, 7] [%]	pest or weed control at 140 g/ha [1, 7] [%]	pest or weed control at 35 g/ha [1, 8] [%]	pest or weed control at 70 g/ha [1, 8] [%]	pest or weed control at 140 g/ha [1, 8] [%]	pest or weed control at 35 g/ha [2, 9] [%]	pest or weed control at 70 g/ha [2, 9] [%]	further results
COC(=O)c1nc(-c2cccc3c2OCO3)nc(N)c1OC [Compound 98]	0 to 29	0 to 29	0 to 29	0 to 29	0 to 29	30 to 44	0 to 29	0 to 29	0 to 29	45 to 59	60 to 74	60 to 74	0 to 29	0 to 29	0 to 29	0 to 29	30 to 44	60 to 74	0 to 29	0 to 29	pest or weed control at 140 g/ha [2, 9]: 0 to 29%; pest or weed control at 35 g/ha [2, 10]: 0 to 29%; pest or weed control at 70 g/ha [2, 10]: 0 to 29%; pest or weed control at 140 g/ha [2, 10]: 0 to 29%; pest or weed control at 35 g/ha [2, 11]: 0 to 29%; pest or weed control at 70 g/ha [2, 11]: 0 to 29%; pest or weed control at 140 g/ha [2, 11]: 0 to 29%; pest or weed control at 35 g/ha [2, 12]: 0 to 29%; pest or weed control at 70 g/ha [2, 12]: 0 to 29%; pest or weed control at 140 g/ha [2, 12]: 0 to 29%; pest or weed control at 35 g/ha [2, 13]: 0 to 29%; pest or weed control at 70 g/ha [2, 13]: 0 to 29%; pest or weed control at 140 g/ha [2, 13]: 0 to 29%; pest or weed control at 35 g/ha [2, 14]: 0 to 29%; pest or weed control at 70 g/ha [2, 14]: 0 to 29%; pest or weed control at 140 g/ha [2, 14]: 0 to 29%
Nc1cc(-c2c(F)ccc3c2OC(F)(F)O3)nc(C(=O)O)c1Cl [Compound 91]	60 to 74	75 to 84	75 to 84	95 to 100	95 to 100	95 to 100	0 to 29	45 to 59	60 to 74	95 to 100	95 to 100	95 to 100	0 to 29	0 to 29	0 to 29	0 to 29	0 to 29	0 to 29	0 to 29	0 to 29	pest or weed control at 140 g/ha [2, 9]: 0 to 29%; pest or weed control at 35 g/ha [2, 10]: 0 to 29%; pest or weed control at 70 g/ha [2, 10]: 0 to 29%; pest or weed control at 140 g/ha [2, 10]: 0 to 29%; pest or weed control at 35 g/ha [2, 11]: 0 to 29%; pest or weed control at 70 g/ha [2, 11]: 0 to 29%; pest or weed control at 140 g/ha [2, 11]: 0 to 29%; pest or weed control at 35 g/ha [2, 12]: 0 to 29%; pest or weed control at 70 g/ha [2, 12]: 0 to 29%; pest or weed control at 140 g/ha [2, 12]: 0 to 29%; pest or weed control at 35 g/ha [2, 13]: 0 to 29%; pest or weed control at 70 g/ha [2, 13]: 0 to 29%; pest or weed control at 140 g/ha [2, 13]: 0 to 29%; pest or weed control at 35 g/ha [2, 14]: 0 to 29%; pest or weed control at 70 g/ha [2, 14]: 0 to 29%; pest or weed control at 140 g/ha [2, 14]: 0 to 29%

Reference: patent US9149038B2, “4-amino-6-(heterocyclic)picolinates and 6-amino-2-(heterocyclic)pyrimidine-4-carboxylates and their use as herbicides” (Dow AgroSciences LLC, priority 2013, dated 2015)
